# Experiments:
# [1] = Stability study of gemcabene calcium salt forms (XRPD form, HPLC/CAD purity); assay type: physicochemical
# Procedure: The stability studies were carried out using storage conditions at a) 40° C. and 75% relative humidity (RH), b) at 80° C. and c) at ambient temperature (approximately 22° C.). After 7 days and 14 days, the samples were removed from the relevant storage conditions and initially analyzed by XRPD to identify any form changes. The samples were then analyzed by HPLC/CAD (high-performance liquid chromatography equipped with a charged aerosol detector) for purity, with all solid purity values given on a w/w % basis.
# [2] = Integrated analysis of efficacy from completed clinical studies: LDL-C; assay type: in vivo, human; conditions: inclusive of all background therapies
# Description: Gemcabene calcium salt hydrate Crystal Form 1 given on top of steady-state statins has shown a statin-intensity dependent effect. […] Statins inhibit cholesterol synthesis and upregulate LDL receptor expression to effect LDL-C reduction.
# [3] = Solubility of gemcabene calcium salt hydrate Crystal Form 1 by solvent addition method; assay type: physicochemical; conditions: thermodynamic from solid
# Procedure: Approximately 20 mg of gemcabene calcium Crystal Form 1 was added to 5×2 mL vials. The solubility in 5 solvents was tested using a solvent addition method. Solvents included acetone, ethanol, ethyl acetate, t-butyl methyl ether (t-BME) and water. Solvent was added in 5 volume (100 μL) aliquots until either dissolution or 2 mL in total had been added. Between each addition, samples were heated to 60° C. (40° C. for acetone and t-BME). Any solids remaining after 24 hours at ambient were analyzed by X-ray powder diffraction (XRPD).
# [4] = test system: patients with hypercholesterolemia on stable statin therapy; assay: 12-week placebo-controlled study of 600 mg QD in hypercholesterolemia patients on moderate and high-intensity statins: atherogenic and inflammatory biomarkers; assay type: in vivo, human
# Procedure: High-risk patients including some, but not all those with heterozygous familial hypercholesterolemia (HeFH) or atherosclerotic cardiovascular disease (ASCVD) on appropriate diet and stable statin therapy for at least 12 weeks and LDL-C ≥100 mg/dL (2.59 mmol/L) and triglycerides <500 mg/dL (5.65 mmol/L) were randomized into a 12-week, placebo-controlled, parallel-group, double-blind study to assess the efficacy of gemcabene calcium salt hydrate Crystal Form 1 (PSD90=52 μm) 600 mg (300-mg film-coated Tablet D×2) QD on LDL-C and other lipoproteins and hsCRP (high-sensitivity C-reactive protein). Safety and tolerability were also evaluated. The patients were stratified by high- or moderate-intensity statin therapy, with or without ezetimibe, with a target of 52 patients (26 patients on 600 mg gemcabene calcium salt hydrate Crystal Form 1 as administered by 2×film-coated Tablet D and 26 patients on placebo (“placebo”)) in each stratum. […] Mean baseline LDL-C for all patients was approximately 134 mg/dL (3.48 mmol/L) with most patients in the high-intensity statin stratum on atorvastatin and most patients in the moderate-intensity stratum on either simvastatin or atorvastatin.
# The aim of this study was to characterize gemcabene calcium salt hydrate Crystal Form 1's safety and tolerability and to determine gemcabene calcium salt hydrate Crystal Form 1's additive impact to statins on serum biomarker including atherogenic biomarkers (LDL-C, non-HDL-C, ApoB, ApoE, and triglyceride (TG)) and inflammatory biomarkers (hsCRP, serum amyloid A (SAA)).
# Fifty patients (24 patients on 600 mg (Tablet D×2); 26 placebo) on baseline high-intensity (HI) statins received atorvastatin 40 mg or 80 mg QD; or rosuvastatin 20 mg or 40 mg QD. Fifty-five patients (29 patients on 600 mg GEM; 26 placebo) on baseline moderate-intensity (MI) statins received atorvastatin 10 mg or 20 mg QD; rosuvastatin 5 mg or 10 mg QD; or simvastatin 20 or 40 mg QD. Baseline LDL-C was 127 mg/dL and 134 mg/dL in the MI statin and HI statin stratum, respectively.
# Within the study population, an analysis was performed in a subpopulation of patients having mixed dyslipidemia (LDL-C ≥100 mg/dL and triglycerides ≥200 and <500 mg/dL). Eighteen patients (10 (film-coated Tablet D×2) patients and 8 placebo patients) having a baseline mean LDL-C level of 142 mg/dL, baseline mean triglyceride level of 247 mg/dL and BMI of 34 kg/m^2 were analyzed (FIG. 48). Although not measured in the subpopulation of this Example, some cardiometabolic patients could have elevated sulphatase-2 (Sulf-2) levels, which are believed to cause reduced Syndecan-1 (also known as “remnant receptor”)-mediated clearance of atherogenic remnant lipoproteins. Without being bound by theory, the data shown in FIG. 48 support the inventors' belief that administration of film-coated Tablet D, which comprises a compound of the invention, rescues remnant receptor activity.
# [5] = patients with mixed dyslipidemia, 600 mg QD on statins (FIG. 48)
smiles,measurement,setting,value
"CC(C)(CCCCOCCCCC(C)(C)C(=O)O)C(=O)O.[Ca] [6-(5-Carboxy-5-methyl-hexyloxy)-2,2-dimethylhexanoic acid calcium]",change in form (XRPD),"[1]; 2-week study, 40° C./75% RH, 80° C. and ambient",No change in the form
same,Form (XRPD),"[1]; 40° C./75% RH, 1 Week",Form 1
same,Purity,"[1]; 40° C./75% RH, 1 Week",80.8%
same,Form (XRPD),"[1]; 40° C./75% RH, 2 Weeks",Form 1
same,Purity,"[1]; 40° C./75% RH, 2 Weeks",84.2%
same,Form (XRPD),"[1]; 80° C., 1 Week",Form 1
same,Purity,"[1]; 80° C., 1 Week",80.6%
same,Form (XRPD),"[1]; 80° C., 2 Weeks",Form 1
same,Purity,"[1]; 80° C., 2 Weeks",83.9%
same,Form (XRPD),"[1]; Ambient, 1 Week",Form 1
same,Purity,"[1]; Ambient, 1 Week",80.7%
same,Form (XRPD),"[1]; Ambient, 2 Weeks",Form 1
same,Purity,"[1]; Ambient, 2 Weeks",84.6%
same,purity (HPLC/CAD) compared to the starting form,"[1]; after 2 weeks storage, all 3 storage conditions",drop in purity
same,Starting Purity,"[1]; before storage, HPLC/CAD, w/w %",87.5%
same,mean LDL-C reduction,[2],about 21%
same,solubility,"[3]; organic solvent or mixture, Acetone, heated to 40° C. between additions",< 10000 µg/mL
same,solubility,"[3]; organic solvent or mixture, Ethanol, heated to 60° C. between additions",< 10000 µg/mL
same,solubility,"[3]; organic solvent or mixture, Ethyl Acetate, heated to 60° C. between additions",< 10000 µg/mL
same,solubility,"[3]; organic solvent or mixture, t-Butyl Methyl Ether (t-BME), heated to 40° C. between additions",< 10000 µg/mL
same,solubility,"[3]; Water, heated to 60° C. between additions",33000 µg/mL
same,atherogenic and inflammatory markers,"[4]; hypercholesterolemia patients on MI and HI statins, 600 mg QD, 12 weeks",significant reductions
same,reduction in ApoB,[4]; [5],26%
same,reduction in ApoE,[4]; [5],34%
same,reduction in LDL-C,[4]; [5],23%
same,reduction in TG,[4]; [5],33%
same,reduction in non-HDL-C,[4]; [5],19%
